Test results reported in patent publication US12697313B2, “Methods of treating anemia using formoterol or a pharmaceutically acceptable salt thereof” (Dana-Farber Cancer Institute, Inc., priority 2022, dated 2026).
Where a name gives a salt, the structure may show the parent alone.

Test system: phenylhydrazine (PHZ)-treated mice
Experiment: FF/Arf i.p. in PHZ-treated mice at sub-lethal dose of 60 mg/kg
Format: in vivo

COc1ccc(C[C@@H](C)NC[C@H](O)c2ccc(O)c(NC=O)c2)cc1 [Arf, N-[2-hydroxy-5-[(1R)-1-hydroxy-2-[[(1R)-2-(4-methoxyphenyl)-1-methylethyl]amino]ethyl]phenyl]-formamide, (2R,3R)-2,3-dihydroxybutanedioate (1:1 salt)]
transferrin receptor expression in CFU-e derived from BMPs (FIG. 39B): transferrin receptor expression is enhanced
Hemoglobin (Hb) in peripheral blood (after 7 and 14 days of i.p., FIG. 35): increase Hemoglobin (Hb)
RBC parameters (HCT % and RBCs) in peripheral blood (after 7 days of i.p., FIG. 34): increases RBC parameters
LS-K and LSK cells in bone marrow progenitors (after 14 days of i.p., FIG. 36A-36B): increase LSK, LS-K, and mitochondrial activity
mitochondrial membrane potential (TMRE staining) in bone marrow progenitors (after 14 days of i.p., FIG. 36C): increase LSK, LS-K, and mitochondrial activity
megakaryocyte erythrocyte progenitors (MEP) in BM (after 14 days of i.p., FIG. 37A): increase megakaryocyte erythrocyte progenitors (MEP)
body weights (i.p., PHZ 60 mg/kg, FIG. 32): enhances body weights
platelets and WBCs in peripheral blood (i.p., PHZ 60 mg/kg, FIG. 33): do not affect platelets and WBCs
